Values of other authors, collected in patent US8101199B2, “Des-methyl-tocopherol therapy for restenosis prevention” (Celonova Biosciences, Inc., priority 2003, dated 2012).

How the values were obtained:
[1] = relative to d-Alpha-Toc = 100
[2] = tested on: previously dilated artery segment; details: 1200 IU/day orally for 4 months after PTCA
coronary restenosis = details: clinical trials
femoral arteries = details: rabbit; three weeks after angioplasty; oral treatment beginning 19 d before angioplasty
native coronary vessels = details: addition of 200 mg for all subjects during the study
[3] = tested on: rabbit vascular smooth muscle cells

**Q.** With `CC(=O)Oc1c(C)c(C)c2c(c1C)CCC(C)(CCCC(C)CCCC(C)CCCC(C)C)O2` (racemic) [dl-ALpha-Tocopherol acet.] as the molecule, how does the “Antioxidant Activity (d-Alpha-Toc = 100)” value [1] read?
**A.** 0

**Q.** Which results are given for `Cc1c(C)c2c(c(C)c1O)CCC(C)(CCCC(C)CCCC(C)CCCC(C)C)O2` (racemic) [dl-Alpha-Tocopherol]?
**A.** overall incidence of restenosis defined by an abnormal angiogram or thallium test or exercise stress test [2]: 34.6%; restenosis (angiographically documented) [2]: 35.5%; Antioxidant Activity (d-Alpha-Toc = 100) [1]: 100

**Q.** For `CC(C)(Sc1cc(C(C)(C)C)c(O)c(C(C)(C)C)c1)Sc1cc(C(C)(C)C)c(O)c(C(C)(C)C)c1` [Probucol], which “prevention of coronary restenosis after balloon angioplasty” value (coronary restenosis) is on record?
**A.** shown to prevent coronary restenosis

**Q.** For `Cc1c(C)c2c(c(C)c1O)CC[C@@](C)(CCC[C@H](C)CCC[C@H](C)CCCC(C)C)O2` [alpha-tocopherol, Alpha-Tocopherol], which “angiographically determined minimum luminal diameter” value (femoral arteries) is on record?
**A.** 1.38+/−0.29 mm

**Q.** And the “cross-sectional area of the intima-media” value (femoral arteries)?
**A.** 0.62+/−0.25 mm2

**Q.** And the “effect on restenosis rates” value (native coronary vessels)?
**A.** no effect on restenosis rates

**Q.** What about the “DNA synthesis stimulated by oxidized low density lipoprotein” value [3] of the same molecule?
**A.** inhibited DNA synthesis

**Q.** For `CC(=O)Oc1c(C)c(C)c2c(c1C)CC[C@@](C)(CCC[C@H](C)CCC[C@H](C)CCCC(C)C)O2` [d-Alpha-Tocopherol acet.], which “Antioxidant Activity (d-Alpha-Toc = 100)” value [1] is on record?
**A.** 0

**Q.** With `Cc1c(C)c2c(c(C)c1O)CC[C@@](C)(CCC[C@H](C)CCC[C@H](C)CCCC(C)C)O2` [d-Alpha-Tocopherol] as the molecule, how does the “Antioxidant Activity (d-Alpha-Toc = 100)” value [1] read?
**A.** 100

**Q.** For `Cc1cc(O)c(C)c2c1O[C@](C)(CCC[C@H](C)CCC[C@H](C)CCCC(C)C)CC2` [d-Beta-Tocopherol], which “Antioxidant Activity (d-Alpha-Toc = 100)” value [1] is on record?
**A.** 130

**Q.** Which “Antioxidant Activity (d-Alpha-Toc = 100)” value [1] does the source give for `Cc1cc(O)cc2c1O[C@](C)(CCC[C@H](C)CCC[C@H](C)CCCC(C)C)CC2` [d-Delta-Tocopherol] here?
**A.** 300–500

**Q.** For `Cc1c(O)cc2c(c1C)O[C@](C)(CCC[C@H](C)CCC[C@H](C)CCCC(C)C)CC2` [d-Gamma-Tocopherol], which “Antioxidant Activity (d-Alpha-Toc = 100)” value [1] is on record?
**A.** 200

**Q.** With `Cc1c(O)cc2c(c1C)OC(C)(CCC(=O)O)CC2` (stereo not drawn) [gamma-CEHC, 2,7,8-trimethyl-2-(beta-carboxyethyl)-6-hydroxychroman] as the molecule, how does the cyclooxygenase activity inhibition (cyclooxygenase) read?
**A.** inhibit cyclooxygenase activity

**Q.** Which cyclooxygenase activity inhibition (cyclooxygenase) does the source give for `Cc1c(O)cc2c(c1C)O[C@](C)(CCC[C@H](C)CCC[C@H](C)CCCC(C)C)CC2` [gamma-tocopherol, Gamma-Tocopherol] here?
**A.** inhibit cyclooxygenase activity
